{
  "source": "patent US20250270610A1",
  "about": "“Improving the Efficiency of PAL-Catalyzed Protein Ligation By A Cascade Enzymatic Scheme” (priority 2022, published 2025)",
  "key": {"[1]": {"system": "A431 cells which overexpresses EGFR", "test": "Flow cytometry assay of binding to A431 cells", "format": "cell-based", "settings": "100 nM, 30 min on ice; FIG. 5b and c (confocal and flow cytometry)", "protocol": "FIG. 20 depicts the fluorescence intensity (measured by flow cytometry, λex=488 nm) of untreated A431 and MCF7 cells (ctrl) shown in dark grey fill (Blank), and cells treated with either GFP (100 nM, 30 min), or with ZEGFR-Fc-GFP (100 nM, 30 min) (shown by arrow), respectively. Forward scatter (FSC-A) versus side scatter (SSC-A) were used to gate intact cells.\nTo study binding capacities of ZEGFR-Fc-GFP, A-431 (ATCC, USA) and MCF-7 (ATCC, US) live cells were washed three times with PBS (HyClone, USA), trypsinized by 0.05% Trypsin-EDTA (Gibco, USA), and then resuspended in chilled DMEM (Gibco, USA) with 10% FBS (Gibco, USA). One million cells of each cell line were then incubated with ZEGFR-Fc-GFP (100 nM) and GFP (100 nM) on ice for 30 min. After incubation, the cells were washed with chilled PBS for three times and analyzed by the Fortessa X-20 flow cytometer (BD, USA). The cytometer was set to record 10,000 events per sample, to excite the fluorophore with 488 nm laser, and to collect emitting fluorescent signals in 530/30 nm. The generated raw data were analyzed by Flowjo™ 10 (BD, USA)."}, "[2]": {"system": "EGFR-positive A431 cells", "test": "Live cell confocal imaging of binding to A431 cells", "format": "cell-based", "settings": "confocal fluorescence microscopy, 100 nM, 30 min on ice; FIG. 21", "protocol": "ZEGFR-FC-GFP staining of the membrane was much brighter than that for GFP when the top left panel of each block is compared. The plasma membrane was stained with PKH26 red-fluorescent dye and is shown in the lower left panel and merged image of each block. Scale bar=20 μm.\nTo visualize ZEGFR-Fc-GFP binding activities, A431 and MCF-7 cells were seeded on an 8-well chamber slide (ibidi, USA) and incubated at 37° C. under 5% CO2 overnight. The cells were stained with 2 μM PKH26 red-fluorescent dye (Sigma, USA) for 10 min at 37° C. The stained cells were then incubated with ZEGFR-Fc-GFP (100nM) and GFP (100nM) on ice for 30 min. After incubation, the cells were washed with chilled PBS for three times and fixed with cold 4% formaldehyde for 15 min. The fixed cells were imaged by the LSM 980 confocal microscope (Zeiss, Germany). Microscopic key settings are as follows: 1) excitation laser wavelengths: 488 nm and 561 nm; 2) emission fillers: 507-552 nm and 575-620 nm; 3) imaging mode: Z-stack. The 3D Z-stack images were processed into 2D images by the technique MIP (maximum intensity projection) using the Zen software (Zeiss, Germany)."}},
  "data": [
    {"substance": "ZEGFR-Fc-GFP: dual-ligated product of dimeric fusion protein ZEGFR-Fc-NQL (affibody ZEGFR and IgG Fc domain) with GI-GGGSGGGS-GFP", "values": [
      {"measurement": "binding towards A431 cells", "setting": "[1]", "result": "specific binding"},
      {"measurement": "staining of the membrane compared with GFP", "setting": "[2]", "result": "much brighter"}
    ]}
  ]
}
